Measurements reported in patent publication US10450311B2, “Pesticidally active heterocyclic derivatives with sulphur containing substituents” (Syngenta Participations AG, priority 2014, dated 2019).

Experiments:
Assay type in all cases: in vivo
[1] = system: Bemisia tabaci (Cotton White Fly); experiment: Activity against Bemisia tabaci, sprayed cotton leaf discs; conditions: foliar, 144 h, application rate of 200 ppm, adult white flies on cotton leaf discs, 6 days after incubation
Method: Example B1: Activity Against Bemisia tabaci (Cotton White Fly)
Cotton leaf discs were placed on agar in 24-well microtiter plates and sprayed with aqueous test solutions prepared from 10′000 ppm DMSO stock solutions. After drying the leaf discs were infested with adult white flies. The samples were checked for mortality 6 days after incubation. […] A35, A36 and A47. A1. A2, A3, A8, A10, A14 and A12.

[2] = system: Diabrotica balteata (Corn Root Worm); experiment: Activity against Diabrotica balteata, sprayed maize sprouts; conditions: 96 h, application rate of 200 ppm, larvae on maize sprouts, 4 days after infestation
Method: Example B2: Activity Against Diabrotica balteata (Corn Root Worm)
Maize sprouts, placed on an agar layer in 24-well microtiter plates were treated with aqueous test solutions prepared from 10′000 ppm DMSO stock solutions by spraying. After drying, the plates were infested with […] (6 to 10 per well). The samples were assessed for mortality 4 days after infestation.

[3] = system: Euschistus heros (Neotropical Brown Stink Bug); experiment: Activity against Euschistus heros, sprayed soybean leaf; conditions: 120 h, application rate of 200 ppm, N-2 nymphs on soybean leaf, 5 days after infestation
Method: Example B3: Activity Against Euschistus heros (Neotropical Brown Stink Bug)
Soybean leaf on agar in 24-well microtiter plates were sprayed with aqueous test solutions prepared from 10′000 ppm DMSO stock solutions. After drying the leaf were infested with N-2 nymphs. The samples were assessed for mortality 5 days after infestation.

[4] = system: Myzus persicae (Green Peach Aphid); experiment: Activity against Myzus persicae, sprayed sunflower leaf discs; conditions: foliar, 144 h, application rate of 200 ppm, aphid population of mixed ages on sunflower leaf discs, 6 days after infestation
Method: Example B5: Activity Against Myzus persicae (Green Peach Aphid)
(§1) Sunflower leaf discs were placed on agar in a 24-well microtiter plate and sprayed with aqueous test solutions prepared from 10′000 ppm DMSO stock solutions. After drying, the leaf discs were infested with an aphid population of mixed ages. The samples were assessed for mortality 6 days after infestation.

[5] = system: Plutella xylostella (Diamond Back Moth); experiment: Activity against Plutella xylostella, treated artificial diet; conditions: 120 h, application rate of 200 ppm, L2 larvae on artificial diet, 5 days after infestation, read-out: effect in at least one of the two categories (mortality or growth inhibition)
Method: Example B8: Activity Against Plutella xylostella (Diamond Back Moth)
24-well microtiter plates with artificial diet were treated with aqueous test solutions prepared from 10′000 ppm DMSO stock solutions by pipetting. After drying, the plates were infested with L2 larvae (10 to 15 per well). The samples were assessed for mortality and growth inhibition in comparison to untreated samples 5 days after infestation.

[6] = system: Spodoptera littoralis (Egyptian Cotton Leaf Worm); experiment: Activity against Spodoptera littoralis, sprayed cotton leaf discs; conditions: foliar, 72 h, application rate of 200 ppm, L1 larvae on cotton leaf discs, 3 days after infestation, read-out: control (at least one of mortality, anti-feedant effect, growth inhibition)
Method: Example B9: Activity Against Spodoptera littoralis (Egyptian Cotton Leaf Worm)
Cotton leaf discs were placed on agar in 24-well microtiter plates and sprayed with aqueous test solutions prepared from 10′000 ppm DMSO stock solutions. After drying the leaf discs were infested with five L1 larvae. The samples were assessed for mortality, anti-feedant effect, and growth inhibition in comparison to untreated samples 3 days after infestation. Control of Spodoptera littoralis by a test sample is when at least one of mortality, anti-feedant effect, and growth inhibition is higher than the untreated sample.

[7] = system: Aedes aegypti (Yellow Fever Mosquito); experiment: whole plant or invertebrate; conditions: 48 h, test rate of 5 ppm, L2 larvae in 96-well plates, incubation period of 2 days, read-out: effect in at least one of the two categories (mortality or growth inhibition)
Method: Example B14: Activity Against Aedes aegypti (Yellow Fever Mosquito)
10 to 15 Aedes larvae (L2) together with a nutrition mixture were placed in 96-well microtiter plates. Test compounds were pipetted into the wells. After an incubation period of 2 days insects were assessed for mortality and growth inhibition.

[8] = system: Myzus persicae (Green Peach Aphid); experiment: Activity against Myzus persicae, sucrose solution under Parafilm; conditions: 120 h, test rate of 12 ppm, mixed with sucrose solution, 5 days after infestation
Source text: Example B7: Activity Against Myzus persicae (Green Peach Aphid)
Test compounds from 10′000 ppm DMSO stock solutions were applied by pipette into 24-well microtiter plates and mixed with sucrose solution. The plates were closed with a stretched Parafilm. A plastic stencil with 24 holes was placed onto the plate and infested pea seedlings were placed directly on the Parafilm. The infested plate was closed with a gel blotting paper and another plastic stencil and then turned upside down. The samples were assessed for mortality 5 days after infestation. […] A30 and A32.

[9] = system: Frankliniella occidentalis (Western Flower Thrips); experiment: Activity against Frankliniella occidentalis, sprayed sunflower leaf discs; conditions: foliar, 168 h, application rate of 200 ppm, population of mixed ages on sunflower leaf discs, 7 days after infestation
Method: Example B4: Activity Against Frankliniella occidentalis (Western Flower Thrips)
as §1, with “in” for “in a”, “plates” for “plate”, “[…]” for “10′000 ppm”, “drying” for “drying,”, “a Frankliniella” for “an aphid”, “7” for “6”

[10] = system: Myzus persicae (Green Peach Aphid); experiment: Activity against Myzus persicae, roots of infested pea seedlings in test solution; conditions: 144 h, test rate of 24 ppm, 6 days
Method: Example B6: Activity Against Myzus persicae (Green Peach Aphid)
Roots of pea seedlings infested with an aphid population of mixed ages were placed directly in the aqueous test solutions prepared from 10′000 DMSO stock solutions. The samples were assessed for mortality 6 days after placing seedlings in test solutions.

[11] = system: Spodoptera littoralis (Egyptian Cotton Leaf Worm); experiment: Activity against Spodoptera littoralis, systemic activity; conditions: 144 h, test rate of 12.5 ppm, in agar, lettuce root uptake, 6 days after infestation
Source text: Example B11: Activity Against Spodoptera littoralis (Egyptian Cotton Leaf Worm), Systemic Activity
(§2) Test compounds were applied by pipette from 10′000 ppm DMSO stock solutions into 24-well plates and mixed with agar. Lettuce seeds were placed on the agar and the multi well plate was closed by another plate which contains also agar. After 7 days the roots have absorbed the compound and the lettuce has grown into the lid plate. The lettuce leafs were now cut off into the lid plate. Spodoptera eggs were pipetted through a plastic stencil on a humid gel blotting paper and the plate closed with it. The samples were assessed for mortality 6 days after infestation.

[12] = system: Spodoptera littoralis (Egyptian Cotton Leaf Worm); experiment: Activity against Spodoptera littoralis, compound in agar taken up by lettuce; conditions: 144 h, test rate of 12.5 ppm, lettuce root uptake, 6 days after infestation, read-out: effect in at least one of the three categories (mortality, anti-feedancy, or growth inhibition)
Source text: Example B10: Activity Against Spodoptera littoralis (Egyptian Cotton Leaf Worm)
as §2, with “mortality, anti-feedant effect and growth inhibition in comparison to untreated samples” for “mortality”

[13] = system: Thrips tabaci (Onion Thrips); experiment: Activity against Thrips tabaci, feeding/contact activity; conditions: foliar, 144 h, application rate of 200 ppm, thrips population of mixed ages on sunflower leaf discs, 6 days after infestation
Method: Example B13: Activity Against Thrips tabaci (Onion Thrips) Feeding/Contact Activity
as §1, with “in” for “in a”, “plates” for “plate”, “drying” for “drying,”, “a thrips” for “an aphid”

CCn1c(C(F)(F)F)cc2nc(-c3ncc(C(F)(F)F)cc3S(=O)(=O)CC)n(C)c2c1=O [Compound A2]
≥ 80%: mortality at 200 ppm [1] | mortality at 200 ppm [2] | mortality at 200 ppm [3] | mortality at 200 ppm [4] | percent effect (mortality or growth inhibition) at 200 ppm [5] | percent control (mortality, anti-feedant effect or growth inhibition) at 200 ppm [6] | percent effect (mortality or growth inhibition) at 5 ppm [7]

CCS(=O)(=O)c1cc(C(F)(F)F)cnc1-c1nc2cc(C(F)(F)F)n(Cc3ccccc3)c(=O)c2n1C [Compound A4, 5-benzyl-2-[3-ethylsulfonyl-5-(trifluoromethyl)-2-pyridyl]-3-methyl-6-(trifluoromethyl)imidazo[4,5-c]pyridin-4-one]
≥ 80%: mortality at 200 ppm [2] | mortality at 12 ppm [8] | percent effect (mortality or growth inhibition) at 200 ppm [5] | percent control (mortality, anti-feedant effect or growth inhibition) at 200 ppm [6]

CCS(=O)(=O)c1cc(C2CC2)cnc1-c1nc2cc(C(F)(F)F)n(C)c(=O)c2n1C [Compound A23]
≥ 80%: mortality at 200 ppm [2] | mortality at 200 ppm [3] | mortality at 200 ppm [9] | mortality at 200 ppm [4] | mortality at 24 ppm [10] | percent effect (mortality or growth inhibition) at 200 ppm [5] | percent control (mortality, anti-feedant effect or growth inhibition) at 200 ppm [6] | mortality at 12.5 ppm [11] | percent effect (mortality or growth inhibition) at 5 ppm [7]

CCn1c(C(F)(F)F)cc2nc(-c3ncc(Br)cc3S(=O)(=O)CC)n(C)c2c1=O [Compound A31, 2-(5-bromo-3-ethylsulfonyl-2-pyridyl)-5-ethyl-3-methyl-6-(trifluoromethyl)imidazo[4,5-c]pyridin-4-one]
≥ 80%: mortality at 200 ppm [1] | mortality at 200 ppm [2] | mortality at 200 ppm [3] | mortality at 200 ppm [4] | percent effect (mortality or growth inhibition) at 200 ppm [5] | percent control (mortality, anti-feedant effect or growth inhibition) at 200 ppm [6] | percent control (mortality, anti-feedancy or growth inhibition) at 12.5 ppm [12] | mortality at 12.5 ppm [11] | percent effect (mortality or growth inhibition) at 5 ppm [7]

CCn1c(C(F)(F)F)cc2nc(-c3ncc(-c4ccc(C(F)(F)F)cc4)cc3S(=O)(=O)CC)n(C)c2c1=O [Compound A35, 5-ethyl-2-[3-ethylsulfonyl-5-[4-(trifluoromethyl)phenyl]-2-pyridyl]-3-methyl-6-(trifluoromethyl)imidazo[4,5-c]pyridin-4-one]
≥ 80%: mortality at 200 ppm [1] | mortality at 200 ppm [2] | mortality at 200 ppm [3] | mortality at 200 ppm [4] | percent effect (mortality or growth inhibition) at 200 ppm [5] | percent control (mortality, anti-feedant effect or growth inhibition) at 200 ppm [6] | mortality at 12.5 ppm [11]

CCS(=O)(=O)c1cc(C(F)(F)C(F)(F)F)cnc1-c1nc2cc(C(F)(F)F)n(C)c(=O)c2n1C [Compound A46, 2-[3-ethylsulfonyl-5-(1,1,2,2,2-pentafluoroethyl)-2-pyridyl]-3,5-dimethyl-6-(trifluoromethyl)imidazo[4,5-c]pyridin-4-one]
≥ 80%: mortality at 200 ppm [2] | mortality at 200 ppm [3] | mortality at 200 ppm [9] | mortality at 200 ppm [4] | percent effect (mortality or growth inhibition) at 200 ppm [5] | percent control (mortality, anti-feedant effect or growth inhibition) at 200 ppm [6] | percent control (mortality, anti-feedancy or growth inhibition) at 12.5 ppm [12] | mortality at 12.5 ppm [11] | mortality at 200 ppm [13] | percent effect (mortality or growth inhibition) at 5 ppm [7]

CCS(=O)(=O)c1cc(C(F)(F)F)ccc1-c1nc2cc(C(F)(F)F)n(C)c(=O)c2n1C [Compound A73, 2-[2-ethylsulfonyl-4-(trifluoromethyl)phenyl]-3,5-dimethyl-6-(trifluoromethyl)imidazo[4,5-c]pyridin-4-one]
≥ 80%: mortality at 200 ppm [2] | mortality at 200 ppm [3] | mortality at 200 ppm [4] | mortality at 24 ppm [10] | percent effect (mortality or growth inhibition) at 200 ppm [5] | percent control (mortality, anti-feedant effect or growth inhibition) at 200 ppm [6] | percent control (mortality, anti-feedancy or growth inhibition) at 12.5 ppm [12] | mortality at 12.5 ppm [11] | percent effect (mortality or growth inhibition) at 5 ppm [7]

CCSc1cc(C(F)(F)F)cnc1-c1nc2cc(C(F)(F)F)c(=O)n(C)c2n1C [Compound B1, 2-[3-ethylsulfanyl-5-(trifluoromethyl)-2-pyridyl]-3,4-dimethyl-6-(trifluoromethyl)imidazo[4,5-b]pyridin-5-one]
≥ 80%: mortality at 200 ppm [4] | mortality at 12 ppm [8]

CCS(=O)(=O)c1cc(C(F)(F)F)cnc1-c1nc2cc(C(F)(F)F)c(=O)n(C)c2n1C [Compound B2, 2-[3-ethylsulfonyl-5-(trifluoromethyl)-2-pyridyl]-3,4-dimethyl-6-(trifluoromethyl)imidazo[4,5-b]pyridin-5-one]
≥ 80%: mortality at 200 ppm [1] | mortality at 200 ppm [2] | mortality at 200 ppm [3] | mortality at 200 ppm [4] | mortality at 24 ppm [10] | mortality at 12 ppm [8]
